Experimental data: patent US8350065B2, “5,6-dimethyl xanthone-4-acetic acid derivatives and method of preparing the same” (Grand Pharma (China) Co., Ltd., priority 2008, dated 2013)

System: Clone No. 38 tumor
Test: Anti-tumor effect by short-term tissue assay in tumor-bearing mice (titled cytotoxic activity)
Type: in vivo
Details: mice with Clone No. 38 tumor; for OD (minimum dose of brine injection administered by peritoneal injection and causing activity): peritoneal injection in brine, dose raised in 1.5-fold steps to maximum tolerated dose; for Activity (necrosis of tumor cross section): peritoneal injection, short-term tissue assay
Experimental: Cytotoxic activity of the compounds represented by formula (I) was measured by the following method.
Clone No. 38 tumor was obtained from Mason Research Inc. and injected into experimental mice. […] Each dosage level was measured independently at least two times (commonly, three times). For each measurement, each group had five mice. The anti-tumor effect of the compounds was measured through short-term tissue assay.
OD refers to the minimum dose (mg/Kg) of brine injection administered by peritoneal injection and causing activity; ++ refers to >90% of cross section is necrotic.

| Structure (SMILES) | OD (minimum dose of brine injection administered by peritoneal injection and causing activity) [mg/kg] | Activity (necrosis of tumor cross section) |
| --- | --- | --- |
| Cc1cc(C)c2c(=O)c3cccc(CC(=O)O)c3oc2c1C [NO 4, 5,6,8-trimethylxanthone-4-acetic acid] | 30 | ++ (>90% of cross section is necrotic) |
| Cc1cc(CC(=O)O)c2oc3c(C)c(C)ccc3c(=O)c2c1 [NO 2, 2,5,6-trimethyl xanthone-4-acetic acid] | 25 | ++ (>90% of cross section is necrotic) |
| Cc1cc2c(=O)c3cccc(CC(=O)O)c3oc2c(C)c1C [NO 3, 5,6,7-trimethylxanthone-4-acetic acid] | 30 | ++ (>90% of cross section is necrotic) |
| Cc1ccc2c(=O)c3cccc(CC(=O)O)c3oc2c1C [NO 1, 5,6-dimethyl xanthone-4-acetic acid] | 30 | ++ (>90% of cross section is necrotic) |
